# Key:
# [1] = Spectroscopic properties of the BDM library (absorbance and emission maxima); assay type: physicochemical
# [2] = Quantum yield measurements; assay type: physicochemical; conditions: referred to Rhodamine B in EtOH, excitation 510 nm, emission integrated 540-800 nm
# Protocol: Quantum yields were calculated by measuring the integrated emission area of the fluorescent spectra, and referring them to the area measured for Rhodamine B in EtOH after excitation at 510 nm (ΦRho-B=0.70). Quantum yields for the BDM products were then calculated using equation below, where F represents the area of fluorescent emission, n is reflective index of the solvent, and Abs is absorbance at excitation wavelength selected for standards and samples. Emission was integrated from 540 nm to 800 nm.
smiles,measurement,setting,value
COc1cc(/C=C/c2cc(C)c3n2[B-](F)(F)[N+]2=CC=CC2=C3CCN)cc(OC)c1OC [BDM-1],λmax (ABS),[1],561 nm
same,λmax (EM),[1],586 nm
same,φ (quantum yield),[2],0.21
Cc1cc(/C=C/c2ccc(N(C)C)cc2)n2c1C(CCN)=C1C=CC=[N+]1[B-]2(F)F [BDM-2],λmax (ABS),[1],607 nm
same,λmax (EM),[1],685 nm
same,φ (quantum yield),[2],0.01
Cc1cc(/C=C/c2ccc(N(C)CCC#N)cc2)n2c1C(CCN)=C1C=CC=[N+]1[B-]2(F)F [BDM-3],λmax (ABS),[1],600 nm
same,λmax (EM),[1],683 nm
same,φ (quantum yield),[2],0.05
Cc1cc(/C=C/c2ccc(OCc3ccccc3)c(OCc3ccccc3)c2)n2c1C(CCN)=C1C=CC=[N+]1[B-]2(F)F [BDM-4],λmax (ABS),[1],566 nm
same,λmax (EM),[1],590 nm
same,φ (quantum yield),[2],0.42
Cc1cc(/C=C/c2ccc(-c3ccccc3)cc2)n2c1C(CCN)=C1C=CC=[N+]1[B-]2(F)F [BDM-5],λmax (ABS),[1],561 nm
same,λmax (EM),[1],575 nm
same,φ (quantum yield),[2],0.50
Cc1cc(/C=C/c2c3ccccc3cc3ccccc23)n2c1C(CCN)=C1C=CC=[N+]1[B-]2(F)F [BDM-6],λmax (ABS),[1],536 nm
same,λmax (EM),[1],682 nm
same,φ (quantum yield),[2],0.12
COc1ccc(/C=C/c2cc(C)c3n2[B-](F)(F)[N+]2=CC=CC2=C3CCN)cc1OCc1ccccc1 [BDM-7],λmax (ABS),[1],566 nm
same,λmax (EM),[1],591 nm
same,φ (quantum yield),[2],0.37
Cc1cc(/C=C/c2ccc(-n3ccnc3)cc2)n2c1C(CCN)=C1C=CC=[N+]1[B-]2(F)F [BDM-8],λmax (ABS),[1],561 nm
same,λmax (EM),[1],575 nm
same,φ (quantum yield),[2],0.34
Cc1cccc(/C=C/c2cc(C)c3n2[B-](F)(F)[N+]2=CC=CC2=C3CCN)c1 [BDM-9],λmax (ABS),[1],554 nm
same,λmax (EM),[1],567 nm
same,φ (quantum yield),[2],0.33
Cc1cc(/C=C/c2ccc(Cl)cc2)n2c1C(CCN)=C1C=CC=[N+]1[B-]2(F)F [BDM-12],λmax (ABS),[1],556 nm
same,λmax (EM),[1],567 nm
same,φ (quantum yield),[2],0.32
Cc1cc(/C=C/c2ccc(N(c3ccccc3)c3ccccc3)cc2)n2c1C(CCN)=C1C=CC=[N+]1[B-]2(F)F [BDM-14],λmax (ABS),[1],593 nm
same,λmax (EM),[1],624 nm
same,φ (quantum yield),[2],0.02
Cc1cc(/C=C/c2cc(C)c3n2[B-](F)(F)[N+]2=CC=CC2=C3CCN)cc(C)c1OCc1ccccc1 [BDM-16],λmax (ABS),[1],561 nm
same,λmax (EM),[1],574 nm
same,φ (quantum yield),[2],0.14
CCCCN(CCCC)c1ccc(/C=C/C2=[N+]3C(=C(CCN)c4cccn4[B-]3(F)F)C(C)=C2)cc1 [BDM-17],λmax (ABS),[1],622 nm
same,λmax (EM),[1],695 nm
same,φ (quantum yield),[2],0.03
CSc1ccc(/C=C/c2cc(C)c3n2[B-](F)(F)[N+]2=CC=CC2=C3CCN)cc1 [BDM-18],λmax (ABS),[1],567 nm
same,λmax (EM),[1],588 nm
same,φ (quantum yield),[2],0.33
Cc1cc(/C=C/c2ccc(C(C)C)cc2)n2c1C(CCN)=C1C=CC=[N+]1[B-]2(F)F [BDM-19],λmax (ABS),[1],555 nm
same,λmax (EM),[1],569 nm
same,φ (quantum yield),[2],0.71
CC1=CC(/C=C/c2cccc(Oc3ccccc3)c2)=[N+]2C1=C(CCN)c1cccn1[B-]2(F)F [BDM-20],λmax (ABS),[1],554 nm
same,λmax (EM),[1],564 nm
same,φ (quantum yield),[2],0.47
Cc1cc(/C=C/c2ccco2)n2c1C(CCN)=C1C=CC=[N+]1[B-]2(F)F [BDM-22],λmax (ABS),[1],567 nm
same,λmax (EM),[1],584 nm
same,φ (quantum yield),[2],0.14
CC1=CC(/C=C/c2ccccc2)=[N+]2C1=C(CCN)c1cccn1[B-]2(F)F [BDM-27],λmax (ABS),[1],553 nm
same,λmax (EM),[1],566 nm
same,φ (quantum yield),[2],0.39
Cc1cc(/C=C/c2ccc(-c3cccs3)s2)n2c1C(CCN)=C1C=CC=[N+]1[B-]2(F)F [BDM-30],λmax (ABS),[1],596 nm
same,λmax (EM),[1],634 nm
same,φ (quantum yield),[2],0.11
COc1ccc(/C=C/c2cc(C)c3n2[B-](F)(F)[N+]2=CC=CC2=C3CCN)c2ccccc12 [BDM-32],λmax (ABS),[1],576 nm
same,λmax (EM),[1],624 nm
same,φ (quantum yield),[2],0.25
Cc1ccc(O)c(/C=C/c2cc(C)c3n2[B-](F)(F)[N+]2=CC=CC2=C3CCN)c1 [BDM-33],λmax (ABS),[1],564 nm
same,λmax (EM),[1],580 nm
same,φ (quantum yield),[2],0.14
Cc1ccc2cccc(/C=C/c3cc(C)c4n3[B-](F)(F)[N+]3=CC=CC3=C4CCN)c2c1 [BDM-34],λmax (ABS),[1],547 nm
same,λmax (EM),[1],581 nm
same,φ (quantum yield),[2],0.65
Cc1cc(/C=C/c2ccc(C)c3ccccc23)n2c1C(CCN)=C1C=CC=[N+]1[B-]2(F)F [BDM-36],λmax (ABS),[1],568 nm
same,λmax (EM),[1],595 nm
same,φ (quantum yield),[2],0.23
CC1=CC(/C=C/c2csc3ccccc23)=[N+]2C1=C(CCN)c1cccn1[B-]2(F)F [BDM-37],λmax (ABS),[1],566 nm
same,λmax (EM),[1],588 nm
same,φ (quantum yield),[2],0.15
COc1ccc(/C=C/c2cc(C)c3n2[B-](F)(F)[N+]2=CC=CC2=C3CCN)c(Cl)c1O [BDM-38],λmax (ABS),[1],565 nm
same,λmax (EM),[1],579 nm
same,φ (quantum yield),[2],0.06
Cc1cc(/C=C/c2ccccc2-c2ccccc2)n2c1C(CCN)=C1C=CC=[N+]1[B-]2(F)F [BDM-40],λmax (ABS),[1],554 nm
same,λmax (EM),[1],567 nm
same,φ (quantum yield),[2],0.53
COc1ccc(Oc2cccc(/C=C/c3cc(C)c4n3[B-](F)(F)[N+]3=CC=CC3=C4CCN)c2)cc1 [BDM-42],λmax (ABS),[1],554 nm
same,λmax (EM),[1],563 nm
same,φ (quantum yield),[2],0.25
Cc1cc(/C=C/c2cc(C(C)(C)C)ccc2O)n2c1C(CCN)=C1C=CC=[N+]1[B-]2(F)F [BDM-43],λmax (ABS),[1],564 nm
same,λmax (EM),[1],579 nm
same,φ (quantum yield),[2],0.21
CCCCCCOc1ccc(/C=C/c2cc(C)c3n2[B-](F)(F)[N+]2=CC=CC2=C3CCN)cc1 [BDM-45],λmax (ABS),[1],564 nm
same,λmax (EM),[1],583 nm
same,φ (quantum yield),[2],0.74
CCCCOc1ccc(/C=C/c2cc(C)c3n2[B-](F)(F)[N+]2=CC=CC2=C3CCN)cc1 [BDM-46],λmax (ABS),[1],564 nm
same,λmax (EM),[1],583 nm
same,φ (quantum yield),[2],0.53
C=CCOc1ccc(/C=C/c2cc(C)c3n2[B-](F)(F)[N+]2=CC=CC2=C3CCN)cc1 [BDM-48],λmax (ABS),[1],563 nm
same,λmax (EM),[1],583 nm
same,φ (quantum yield),[2],0.83
Cc1cc(/C=C/c2ccc(C=O)cc2)n2c1C(CCN)=C1C=CC=[N+]1[B-]2(F)F [BDM-49],λmax (ABS),[1],562 nm
same,λmax (EM),[1],572 nm
same,φ (quantum yield),[2],0.24
CCOc1ccc(/C=C/c2cc(C)c3n2[B-](F)(F)[N+]2=CC=CC2=C3CCN)cc1OCC [BDM-53],λmax (ABS),[1],568 nm
same,λmax (EM),[1],600 nm
same,φ (quantum yield),[2],0.46
COc1ccc(Br)cc1/C=C/c1cc(C)c2n1[B-](F)(F)[N+]1=CC=CC1=C2CCN [BDM-54],λmax (ABS),[1],559 nm
same,λmax (EM),[1],573 nm
same,φ (quantum yield),[2],0.52
COc1ccc2ccccc2c1/C=C/C1=[N+]2C(=C(CCN)c3cccn3[B-]2(F)F)C(C)=C1 [BDM-61],λmax (ABS),[1],576 nm
same,λmax (EM),[1],610 nm
same,φ (quantum yield),[2],0.22
COc1ccc(/C=C/C2=[N+]3C(=C(CCN)c4cccn4[B-]3(F)F)C(C)=C2)cc1OC [BDM-62],λmax (ABS),[1],567 nm
same,λmax (EM),[1],594 nm
same,φ (quantum yield),[2],0.43
CCOc1ccc(/C=C/C2=[N+]3C(=C(CCN)c4cccn4[B-]3(F)F)C(C)=C2)cc1OC [BDM-63],λmax (ABS),[1],568 nm
same,λmax (EM),[1],597 nm
same,φ (quantum yield),[2],0.54
CC1=CC(/C=C/c2ccc(-c3ccccc3)s2)=[N+]2C1=C(CCN)c1cccn1[B-]2(F)F [BDM-65],λmax (ABS),[1],589 nm
same,λmax (EM),[1],615 nm
same,φ (quantum yield),[2],0.15
CC1=CC(/C=C/c2ccc(OC(F)(F)F)cc2)=[N+]2C1=C(CCN)c1cccn1[B-]2(F)F [BDM-68],λmax (ABS),[1],551 nm
same,λmax (EM),[1],561 nm
same,φ (quantum yield),[2],0.63
COc1ccc2c(OC)ccc(/C=C/C3=[N+]4C(=C(CCN)c5cccn5[B-]4(F)F)C(C)=C3)c2c1 [BDM-70],λmax (ABS),[1],582 nm
same,λmax (EM),[1],642 nm
same,φ (quantum yield),[2],0.13
CC1=CC(/C=C/c2cc(Br)ccc2O)=[N+]2C1=C(CCN)c1cccn1[B-]2(F)F [BDM-73],λmax (ABS),[1],561 nm
same,λmax (EM),[1],575 nm
same,φ (quantum yield),[2],0.28
CC1=CC(/C=C/c2ccc(OC(C)(C)C)cc2)=[N+]2C1=C(CCN)c1cccn1[B-]2(F)F [BDM-75],λmax (ABS),[1],560 nm
same,λmax (EM),[1],585 nm
same,φ (quantum yield),[2],0.53
CCCc1ccc(/C=C/C2=[N+]3C(=C(CCN)c4cccn4[B-]3(F)F)C(C)=C2)cc1 [BDM-77],λmax (ABS),[1],557 nm
same,λmax (EM),[1],569 nm
same,φ (quantum yield),[2],0.54
CC1=CC(/C=C/c2ccc(N(C)C)cc2[N+](=O)[O-])=[N+]2C1=C(CCN)c1cccn1[B-]2(F)F [BDM-78],λmax (ABS),[1],591 nm
same,φ (quantum yield),[2],0.01
COc1cc(OC)c(/C=C/C2=[N+]3C(=C(CCN)c4cccn4[B-]3(F)F)C(C)=C2)c(OC)c1 [BDM-82],λmax (ABS),[1],579 nm
same,λmax (EM),[1],621 nm
same,φ (quantum yield),[2],0.40
CC1=CC(/C=C/c2ccc(-c3ccccn3)cc2)=[N+]2C1=C(CCN)c1cccn1[B-]2(F)F [BDM-88],λmax (ABS),[1],565 nm
same,λmax (EM),[1],576 nm
same,φ (quantum yield),[2],0.21
CC1=CC(/C=C/c2ccc3c4c(cccc24)CC3)=[N+]2C1=C(CCN)c1cccn1[B-]2(F)F [BDM-89],λmax (ABS),[1],576 nm
same,λmax (EM),[1],612 nm
same,φ (quantum yield),[2],0.30
CC1=CC(/C=C/c2ccc(OCc3ccccc3)cc2)=[N+]2C1=C(CCN)c1cccn1[B-]2(F)F [BDM-90],λmax (ABS),[1],565 nm
same,λmax (EM),[1],582 nm
same,φ (quantum yield),[2],0.26
CC1=CC(/C=C/c2ccc(N(C)CCO)cc2)=[N+]2C1=C(CCN)c1cccn1[B-]2(F)F [BDM-91],λmax (ABS),[1],614 nm
same,λmax (EM),[1],699 nm
same,φ (quantum yield),[2],0.02

# — patent US9267949B2, “Alkylamino BODIPY dyes as selective fluorescent probes for proteins and mouse embryonic stem cells” (National University of Singapore, priority 2011, dated 2016)
